In patent US20060121441A1, “Methods of determining the effect of an agent on diploid cells and/or on the pattern of expression of polypeptides expressed therewith” (priority 2002, published 2006):

Assays:
Type in all cases: cell-based, Aplysia californica
[1] = system: actin bundles at the leading edge of growth cones; test: Confocal imaging of EGFP-actin bundles in growth cones of cultured neurons injected with mRNA encoding EGFP-actin
Description: (§1) Cell culture—Neurons B1 and B2 from buccal ganglia, MCn neurons from the metacerebral ganglion, sensory neurons from the pleuropeadal ganglion and LUQs from the abdominal ganglion of Aplysia californica were isolated and maintained in culture as previously described [Schacher and Proshansky, (1983); Spira et al., (1993, 1996)].
EGFP cDNA was amplified from pEGFP-N1 vector (Clontech, Palo-Alto, Calif., USA) by polymerase chain reaction (PCR) with two specific primers: 5′-GGCCATGGTGAGCAAGG-3′ and 5′-CTTGTACAGCTCGTCCATG-3′(Genset Oligos) (SEQ ID NOs: 1 and 2, respectively). The PCR product was digested with HindII and SmaI and subcloned into corresponding sites of Bluescript II SK (Stratagen, La Jolla, Calif.). Aplysia actin provided by Dr DesGrosiller (Montreal University, Canada) was amplified by PCR from Bluescript containing the actin cDNA using two specific primers: 5′-ATGTGTGACGACGATGTT-3′ and 5′-TTAGAAGCACTTGCGGTCG-3′ (SEQ ID NOs: 3 and 4, respectively) with SmaI and XbaI restriction sites at their 5′ ends. Following digestion, the PCR product was subcloned in-frame with EGFP into the previously prepared pBluescript-EGFP vector linearized with SmaI and XbaI. The EGFP-Actin fragment was then cut out from pBluescript with ClaI and XbaI and subcloned into corresponding sites of pCS2+ vector [Rupp (1994); Turner and Weintraub (1994) supra]. […]

EB3 association with MTs = test: Confocal imaging of EGFP-EB3 and microtubules in cultured neurons; settings: EGFP-EB3-expressing neurons
Description: as §1
Expression constructs—Enzymes were obtained from (New England Biolabs, Beverly, Mass., USA). Each of the chimeric cDNAs of EGFP-EB3, EGFP-p50 and EGFP-MLIV was subcloned into the pCS2+ expression vector as described below [Rupp (1994); Turner and Weintraub (1994)]. For EGFP-EB the pCS2+ vector was cut with XhoI and SnaB. The insert (EGFP-EB3) was cut with NotI, fill in and cut with SalI. For EGFP-P50 the pCS2+ vector was cut with XbaI and the insert was cut with NheI and SpeI.
In-vitro transcription—5′-capped and 3′-polyadenylated mRNA was in vitro transcribed using recombinant in vitro transcription system (Promega, Madison, Wis., USA,). 10 μg of NotI-linearized pCS2+ was used as a template to transcribe capped mRNA. The transcription reaction was effected with RiboMax-sp6 kit (Promrga-P1280). Briefly, a reaction mixture was prepared by mixing 8 μl Transcription ×5 Buffer, 8 μl rNTPs mix containing 25 mM CTP, ATP, UTP and 12 mM GTP, 4 μl of 15 mM Cap analog (Roche 85846029), 1 μl of 40 units rRnasin (Promega N251A), 4 μl enzyme mix and 1-2 μg linear plasmid. Final reaction volume was compensated to 40 μl. […]
Mag-fura-2 Ca^2+ imaging—To study the local effect of elevated calcium levels on the distribution of a given fluorescentlly labled protein ratio imaging of the free intracellular calcium concentration was effected by mag fura-2. […] The fluorescence microscopy system consisted of a Zeiss Axiovert microscope equipped with a 75 W Xenon arc lamp, a Zeiss 40×0.75 NA Plan-Neofluar objective, 340±5 nm and 380±5 nm bandpass excitation filters set in a computer-controlled, Lambda10 position filter changer (Sutter, Novato Calif.), a dichroic mirror with a cut-off threshold of 505 nm and a 545±25 nm band pass emission filter. […]

microtubules = test: Confocal imaging of EGFP-tubulin labelled microtubules in axotomy-induced growth cone of cultured neurons
Description: mRNA microinjection—mRNA was injected into the cytoplasm of Aplysia neurons bathed in ASW 8-48 hours following plating. 0.5-5 μg/μl mRNA in 80 mM KCl was used for injection. Injection was performed by pressure using Medical System Corp microinjector inserted into the cell body under visual control. Approximately up to 10% of the cell's body volume was injected. […] Good penetration was indicated by a resting potential of >−35 mV and measuring a typical input resistance. At the end of the injection, the micropipette tip was pooled out gently of the neuron. Cells were imaged for protein expression 12-48 hours following injection.
Axotomy—Axonal transection was performed by applying pressure on the axon with the thin shaft of a micropipette under visual control, as previously described [Spira et al., 1993, 1996; Ziv and Spira, (1993)].

Structure (SMILES): C=C1[C@@H](C)[C@H]2[C@H](Cc3ccccc3)NC(=O)[C@]23OC(=O)/C=C/[C@H](O)CCC[C@@H](C)C/C=C/[C@H]3[C@@H]1O [cytochalasin B]
- effect on EGFP labeled actin bundles at the leading edge of growth cones ([1]; cultured B1 neuron, nine minutes following bath application of 2 mM): actin bundles disassembly and the formation of small actin aggregates within the collapsed growth cones and the axoplasm
- depolymerisation of fluorescent actin bundles after application ([1]; growth cone formed after axotomy, FIGS. 3a-b): depolymerised within minutes

Structure (SMILES): COC(=O)Nc1nc2ccc(C(=O)c3cccs3)cc2[nH]1 [nocodazole]
- effect on MTs and EB3 association with MTs (EB3 association with MTs): induces MTs deplymerization and dissociation of EB3 from the MTs
- effect on EGFP-tubulin microtubules in growth cone lamellipodium (microtubules; bath application 5 mM for 5 min): depolymerisation of most microtubules
- effect on EGFP labelled microtubules within growth cone (microtubules; cultured B1 neuron, twenty three minutes following bath application of 5 mM): microtubules depolymerise

Structure (SMILES): CCCC[C@@H](C=O)NC(=O)[C@H](CC(C)C)NC(=O)OCc1ccccc1 [calpeptin]
- effect on MTs and EB3 association with MTs (EB3 association with MTs): induces milled dissociation of EB3 from the MTs

Structure (SMILES): C[C@H](CCC(=O)O)C[C@H](C)C[C@H](C)C(=O)/C=C(\O)[C@H](C)C[C@H](C)C/C=C/[C@@H](C)[C@@H](O)[C@@H](C)[C@@H](O)C[C@@H]1CC[C@@](C)([C@H]2CC[C@@](C)([C@@H](C)O)O2)O1 [ionomycin]
- mimicry of the axotomy-induced MT depolymerization/repolymerization and vesicle trap process by local elevation of [Ca2+]i (EB3 association with MTs; local application): able to mimic the process
